# Experimental data reported in patent US11053204B2, “Pyrimidinyloxy benzene derivatives as herbicides” (FMC Corporation, priority 2015, dated 2021).
# Experiments:
# Format in all cases: in vivo
# [1] = tested on: pigweed (Amaranthus retroflexus); assay: Test C preemergence, plant response rating; conditions: Preemergence
# [2] = tested on: Italian ryegrass (Lolium multiflorum); assay: Test A preemergence, visual injury rating; conditions: Lolium multiflorum, pre-emergence, 240 h, 0 to 100 scale (0 no effect, 100 complete control), read-out: Ryegrass, Italian plant response rating
# How it was run: (§1)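 Compounds in non-phytotoxic solvent with surfactant applied as soil spray preemergence, or postemergence to plants 2-10 cm at one- to two-leaf stage, in loam/sand. After approximately 10 days in greenhouse, injury rated visually versus untreated controls, 0 (no effect) to 100 (complete control).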
# [3] = tested on: giant foxtail (Setaria faberii); assay: Test A preemergence, visual injury rating; conditions: Setaria faberi, pre-emergence, 240 h, 0 to 100 scale (0 no effect, 100 complete control), read-out: Foxtail, Giant plant response rating
# How it was run: as §1
# [4] = tested on: pigweed (Amaranthus retroflexus); assay: Test A preemergence, visual injury rating; conditions: Amaranthus retroflexus, pre-emergence, 240 h, 0 to 100 scale (0 no effect, 100 complete control), read-out: Pigweed plant response rating
# How it was run: as §1
# [5] = tested on: barnyardgrass (Echinochloa crus-galli); assay: Test A preemergence, visual injury rating; conditions: Echinochloa crus-galli, pre-emergence, 240 h, 0 to 100 scale (0 no effect, 100 complete control), read-out: Barnyardgrass plant response rating
# How it was run: as §1
# [6] = tested on: ragweed (common ragweed, Ambrosia elatior); assay: Test A preemergence, visual injury rating; conditions: Ambrosia artemisiifolia, pre-emergence, 240 h, 0 to 100 scale (0 no effect, 100 complete control), read-out: Ragweed plant response rating
# How it was run: as §1
# kochia (Kochia scoparia) [7] = assay: Test A preemergence, visual injury rating; conditions: Bassia scoparia, pre-emergence, 240 h, 0 to 100 scale (0 no effect, 100 complete control), read-out: Kochia plant response rating
# How it was run: as §1
# corn (Zea mays) = assay: Test A postemergence, visual injury rating; conditions: Zea mays, post-emergence, 240 h, 0 is no effect, 100 is complete control, read-out: Corn plant response rating (0 to 100 scale)
# How it was run: as §1
# [8] = tested on: Italian ryegrass (Lolium multiflorum); assay: Test A postemergence, visual injury rating; conditions: Lolium multiflorum, post-emergence, 240 h, 0 is no effect, 100 is complete control, read-out: Ryegrass, Italian plant response rating (0 to 100 scale)
# How it was run: as §1
# [9] = tested on: giant foxtail (Setaria faberii); assay: Test A postemergence, visual injury rating; conditions: Setaria faberi, post-emergence, 240 h, 0 is no effect, 100 is complete control, read-out: Foxtail, Giant plant response rating (0 to 100 scale)
# How it was run: as §1
# [10] = tested on: blackgrass (Alopecurus myosuroides); assay: Test A postemergence, visual injury rating; conditions: Alopecurus myosuroides, post-emergence, 240 h, 0 is no effect, 100 is complete control, read-out: Blackgrass plant response rating (0 to 100 scale)
# How it was run: as §1
# [11] = tested on: galium (catchweed bedstraw, Galium aparine); assay: Test A postemergence, visual injury rating; conditions: Galium, post-emergence, 240 h, 0 is no effect, 100 is complete control, read-out: Galium plant response rating (0 to 100 scale)
# How it was run: as §1
# [12] = tested on: pigweed (Amaranthus retroflexus); assay: Test A postemergence, visual injury rating; conditions: Amaranthus retroflexus, post-emergence, 240 h, 0 is no effect, 100 is complete control, read-out: Pigweed plant response rating (0 to 100 scale)
# How it was run: as §1
# [13] = tested on: barnyardgrass (Echinochloa crus-galli); assay: Test A postemergence, visual injury rating; conditions: Echinochloa crus-galli, post-emergence, 240 h, 0 is no effect, 100 is complete control, read-out: Barnyardgrass plant response rating (0 to 100 scale)
# How it was run: as §1
# [14] = tested on: ragweed (common ragweed, Ambrosia elatior); assay: Test A postemergence, visual injury rating; conditions: Ambrosia artemisiifolia, post-emergence, 240 h, 0 is no effect, 100 is complete control, read-out: Ragweed plant response rating (0 to 100 scale)
# How it was run: as §1
# kochia (Kochia scoparia) [15] = assay: Test A postemergence, visual injury rating; conditions: Bassia scoparia, post-emergence, 240 h, 0 is no effect, 100 is complete control, read-out: Kochia plant response rating (0 to 100 scale)
# How it was run: as §1
# [16] = tested on: wheat (Triticum aestivum); assay: Test A postemergence, visual injury rating; conditions: Triticum aestivum, post-emergence, 240 h, 0 is no effect, 100 is complete control, read-out: Wheat plant response rating (0 to 100 scale)
# How it was run: as §1
structure (smiles),measurement,setting,value
"CC(CC(F)(F)F)OC(=O)c1c(Br)cccc1Oc1ncc(Cl)cn1 (stereo not drawn) [Compound 16, 3,3,3-trifluoro-1-methylpropyl 2-bromo-6-[(5-chloro-2-pyrimidinyl)oxy]benzoate]","Plant response rating, Pigweed","[1]; 125 g ai/ha, scale of 0 to 100",95
same,"Plant response rating, Pigweed","[1]; 16 g ai/ha, scale 0 to 100",0
same,"Plant response rating, Pigweed","[1]; 31 g ai/ha, scale 0 to 100",0
same,"Plant response rating, Pigweed","[1]; 62 g ai/ha, scale 0 to 100",50
same,pest or weed control at 125 g/ha,[2]; 125 g ai/ha,0%
same,pest or weed control at 500 g/ha,[2]; 500 g ai/ha,20%
same,pest or weed control at 125 g/ha,[3]; 125 g ai/ha,90%
same,pest or weed control at 500 g/ha,[3]; 500 g ai/ha,100%
same,pest or weed control at 125 g/ha,[4]; 125 g ai/ha,90%
same,pest or weed control at 500 g/ha,[4]; 500 g ai/ha,100%
same,pest or weed control at 125 g/ha,[5]; 125 g ai/ha,30%
same,pest or weed control at 500 g/ha,[5]; 500 g ai/ha,100%
same,pest or weed control at 125 g/ha,[6]; 125 g ai/ha,0%
same,pest or weed control at 500 g/ha,[6]; 500 g ai/ha,0%
same,pest or weed control at 125 g/ha,kochia (Kochia scoparia) [7]; 125 g ai/ha,90%
same,pest or weed control at 500 g/ha,kochia (Kochia scoparia) [7]; 500 g ai/ha,80%
same,plant injury at 125 g/ha,corn (Zea mays); 125 g ai/ha,20%
same,plant injury at 500 g/ha,corn (Zea mays); 500 g ai/ha,60%
same,pest or weed control at 125 g/ha,[8]; 125 g ai/ha,10%
same,pest or weed control at 500 g/ha,[8]; 500 g ai/ha,30%
same,pest or weed control at 125 g/ha,[9]; 125 g ai/ha,20%
same,pest or weed control at 500 g/ha,[9]; 500 g ai/ha,90%
same,pest or weed control at 125 g/ha,[10]; 125 g ai/ha,20%
same,pest or weed control at 500 g/ha,[10]; 500 g ai/ha,90%
same,pest or weed control at 125 g/ha,[11]; 125 g ai/ha,90%
same,pest or weed control at 500 g/ha,[11]; 500 g ai/ha,100%
same,pest or weed control at 125 g/ha,[12]; 125 g ai/ha,90%
same,pest or weed control at 500 g/ha,[12]; 500 g ai/ha,100%
same,pest or weed control at 125 g/ha,[13]; 125 g ai/ha,10%
same,pest or weed control at 500 g/ha,[13]; 500 g ai/ha,90%
same,pest or weed control at 125 g/ha,[14]; 125 g ai/ha,10%
same,pest or weed control at 500 g/ha,[14]; 500 g ai/ha,30%
same,pest or weed control at 125 g/ha,kochia (Kochia scoparia) [15]; 125 g ai/ha,80%
same,pest or weed control at 500 g/ha,kochia (Kochia scoparia) [15]; 500 g ai/ha,100%
same,plant injury at 125 g/ha,[16]; 125 g ai/ha,20%
same,plant injury at 500 g/ha,[16]; 500 g ai/ha,20%
